Assay results published in US10131647B2, “Chromene derivatives substituted by alkoxide as inhibitors of the TCR-Nck interaction” (ARTAX BIOPHARMA INC., priority 2013, dated 2018).
Where two headings read alike, the source gives them in different places. Blank lines part the entries; values can stand above or below the compound they belong to.

Key:
[1] = system: chronic EAE induced by MOG35-55 peptide; assay: In vivo test on model of chronic EAE (Experimental Autoimmune Encephalomyelitis); set-up: species or system C57BL/6 female mice
[2] = Pharmacokinetics after intravenous bolus and oral gavage; format: in vivo, Swiss albino mice; settings: for F: 50 mg/kg vs IV 5 mg/kg
[3] = oral, first 10 days from immunization, versus placebo group
[4] = mouse, in vivo, IV (5 mg/kg), Swiss albino mice, mean
[5] = mouse, in vivo, PO (50 mg/kg), Swiss albino mice, mean
[6] = IV, 5 mg/kg, Swiss albino mice, mean
[7] = PO, 50 mg/kg, Swiss albino mice, mean

F ([2]; PO, Swiss albino mice): 24
bioavailability ([2]; Swiss albino, mouse, in vivo, 50 mg/kg, oral gavage vs intravenous bolus, text says rats, n=3, read-out: total bioavailability after oral administration): 24%
AUC(0-inf) [2, 4]: 750 ng·h/mL
AUC(0-t) [2, 4]: 724 ng·h/mL
clearance [2, 4]: 111 mL/min/kg
half-life [2, 4]: 8.45 h
Cmax ([2]; mouse, in vivo, IV (5 mg/kg), Swiss albino mice, mean, read-out: Cmax): 1280 ng/mL
Vd ([2]; mouse, in vivo, IV (5 mg/kg), Swiss albino mice, mean, read-out: Vss): 20.6 L/kg
AUC(0-inf) [2, 5]: 1790 ng·h/mL
AUC(0-t) [2, 5]: 1760 ng·h/mL
Cmax ([2]; mouse, in vivo, PO (50 mg/kg), Swiss albino mice, mean, read-out: Cmax): 930 ng/mL
Tmax ([2]; mouse, in vivo, PO (50 mg/kg), Swiss albino mice, mean, read-out: Tmax): 0.25 h
Compound: Fc1ccc(C2=C(CN3CCCC3)COc3ccc(OCC4CC4)cc32)cc1 [AX-104, 1-((6-(cyclopropylmethoxy)-4-(4-fluorophenyl)-2H-chromen-3-yl)methyl)pyrrolidine]
clinical score of the disease (scale 0-6), FIG. 2 [1, 3]: reduced score when compared to the placebo group
weight of the animals (weight loss), FIG. 3 [1, 3]: weight loss significantly reduced
impact of the symptoms associated to the model ([1]; overall results of the EAE study): significantly reducing the impact of the symptoms

AUCint [2, 6]: 840.27 ng·h/mL
AUClast [2, 6]: 838.43 ng·h/mL
CL [2, 6]: 99.17 mL/min/kg
Cmax [2, 6]: 1168.89 ng/mL
T1/2 [2, 6]: 3.36 h
Vss [2, 6]: 11.37 L/kg
F ([2]; PO, Swiss albino mice): 4
AUCint [2, 7]: 299.69 ng·h/mL
AUClast [2, 7]: 297.03 ng·h/mL
Cmax [2, 7]: 171.56 ng/mL
T1/2 [2, 7]: 4.93 h
Tmax [2, 7]: 0.25 h
Compound: COc1ccc2c(c1)C(c1ccc(F)cc1)=C(CN1CCCC1)CO2 [ECRA-24]
